From PubChem BioAssay (NCI) come the findings set out here.

Among the test systems are CAKI-1 renal; A549 NSCLC; HCT-116 colon; HS 578T breast; NCI-H522 lung; SR leukemia; T-47D breast; MDA-N.
Assay in all cases: growth of human tumour cells (NCI), 48 h

The structures appear in SMILES notation.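 Compound exposure: 48 hours, 5 concentrations, 96-well plates. The concentration for 50% growth inhibition is given as GI50. The concentration for full growth arrest is given as TGI.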

For the compound `COc1ccc(-c2ccc(-c3ccc(C(=N)N)nc3)s2)cc1`, in the experiment on CAKI-1 renal, the GI50 was 1.64 µM and the TGI was 3 µM.
Consider `COc1ccc2c(c1)CC[C@@H]1[C@@H]2CC[C@]2(C)C(=O)C3(CCCCC3)C[C@@H]12`, for which the GI50 is > 100 µM in the experiment with A549 NSCLC; 31.9 µM with CAKI-1 renal; > 100 µM in the experiment on HCT-116 colon; 88.1 µM in the experiment with HS 578T breast; > 100 µM in the experiment with NCI-H522 lung; > 100 µM with SR leukemia. In addition, the GI50 in the experiment on T-47D breast was > 100 µM. Moreover, the TGI with A549 NSCLC, with CAKI-1 renal, in the experiment on HCT-116 colon, in the experiment with HS 578T breast, in the experiment with NCI-H522 lung and with SR leukemia was > 100 µM in each case. Moreover, in the experiment with T-47D breast, the TGI is > 100 µM.
Turning to `N#CC(C#N)=CN1CCN(C(=O)c2ccco2)C1=S`, the GI50 in the experiment with A549 NSCLC was 13.5 µM; in the experiment with CAKI-1 renal, 4.76 µM; with T-47D breast it was 21.2 µM. Further, the TGI in the experiment with A549 NSCLC was 47.7 µM; in the experiment with CAKI-1 renal, 30.5 µM; in the experiment on T-47D breast, > 100 µM.
In the case of `O=C(O)C(=C\c1ccc2c(c1)OCO2)/C(=C/c1ccc2c(c1)OCO2)C(=O)O`, the TGI in the experiment with CAKI-1 renal, with HCT-116 colon, with HS 578T breast, in the experiment with MDA-N, with SR leukemia and with T-47D breast was > 100 µM each time.
Consider `Cc1c(C#N)c2nnn(C)c(=O)n2c1-c1ccccc1`, for which the TGI in the experiment on A549 NSCLC, in the experiment on CAKI-1 renal and in the experiment on MDA-N was > 100 µM throughout.
